Molecular target: T1, mouse Tas2r108 (Mus musculus, UniProt Q9JKT3)
T1 construct: expressed in transfected cells; host or cells: HEK293T-Gα16gust44
T1 sequence (Q9JKT3 1-297): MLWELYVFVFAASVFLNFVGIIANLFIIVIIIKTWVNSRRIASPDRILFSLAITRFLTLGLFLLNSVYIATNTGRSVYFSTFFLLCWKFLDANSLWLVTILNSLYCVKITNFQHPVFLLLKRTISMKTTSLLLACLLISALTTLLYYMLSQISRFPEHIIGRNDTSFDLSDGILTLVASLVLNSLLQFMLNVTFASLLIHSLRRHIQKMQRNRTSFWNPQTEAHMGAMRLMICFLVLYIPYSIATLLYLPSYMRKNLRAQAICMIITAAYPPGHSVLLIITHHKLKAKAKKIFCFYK
Assay: Calcium imaging assay (FLIPR), HEK293T-Gα16gust44 cells transfected with mouse Tas2r108
Type: cell-based
Settings: for Δ F/F: Tas2r108
Description: This set of bile acids was chosen because of their commercial availability in high purities, their diversity within the class of bile acids and their previous detection and quantitation in human blood. Stock solutions were prepared in DMSO.
As basal growth medium for the HEK293T-Gα16gust44 cell line[17],[59] served Dulbecco’s modified eagle medium (DMEM) (Thermo Fisher Scientific, Darmstadt, Germany) supplemented with 10 % fetal bovine serum (Sigma-Aldrich, Steinheim, Germany), 2 mM L-glutamine (Sigma-Aldrich, Steinheim, Germany), 100 units/ml penicillin (Sigma Aldrich, Steinheim, Germany) and 100 µg/ml streptomycin (Sigma Aldrich, Steinheim, Germany). Growth conditions were 37 °C, 5 % CO2 and saturated air-humidity[60].
HEK293T-Gα16gust44 cells were seeded on poly-D-lysine (10 µg/ml) coated 96-well plates to reach a confluence of 40-60 % the next day. For transient transfection 150 ng of plasmid DNA containing the receptor of interest and 0.3 µl lipofectamine 2000 (Thermo Fisher Scientific, Darmstadt, Germany) per well were used and transfection took place according to the manual of lipofectamine 2000. […] The empty vector DNA (mock) was transfected as negative control[14],[41].
Cells were loaded using the calcium-sensitive fluorescent dye Fluo-4-AM (Abcam, Cambridge, Great Britain) in the presence of 2.5 mM probenecid (Sigma-Aldrich, Steinheim, Germany) the day after transfection[13],[41]. 1 h after loading, cells were washed with C1 buffer using a BioTek Cell Washer, incubated in the dark for half an hour and washed again. For automated agonist application and measurement of fluorescence changes, a FLIPR^TETRA device (Molecular Devices, San José, United States) was used. Viability of cells was tested by application of 100 nM Somatostatin 14 (Bachem, Bubendorf, Switzerland)[42].
Measured data were negative control corrected by subtracting the signal of the mock-transfected cells and exported to Microsoft Excel using the FLIPR software ScreenWorks 4.2. In Microsoft Excel software, standardization of maximum fluorescence intensities to the basal fluorescence and normalization to the buffer-only control was done to calculate the relative fluorescence changes (ΔF/F).
Initial screening experiments performed in duplicate wells were confirmed by at least one replication and representative traces were selected for display. All dose-response relationships were determined by three independent experiments (biological replicates) performed in duplicates (technical replicates). Threshold concentrations, defined as lowest substance concentrations leading to statistically significant elevated fluorescence changes in receptor-transfected cells compared with empty vector-transfected cells, were determined using SigmaPlot with Student’s t-test to evaluate statistical significance (p < 0.01).

Δ F/F (conc. 0,01 mM): 0.0107
Δ F/F (conc. 0,1 mM): 0.0182
Δ F/F (conc. 0,03 mM): 0.00676
Δ F/F (conc. 0,3 mM): 0.06222
Δ F/F (conc. 0,001 mM): 0.002806
Δ F/F (conc. 1 mM): 0.4313
Δ F/F (conc. 0,003 mM): 0.003344
RLU (Time 0 s): 0 RLU
RLU (Time 2 s): 7.69 RLU
RLU (Time 4 s): 11.6885 RLU
RLU (Time 6 s): 14.9144 RLU
RLU (Time 8 s): 2.856 RLU
RLU (Time 12 s): -20.1582 RLU
RLU (Time 14 s): -24.1348 RLU
RLU (Time 16 s): -22.3266 RLU
RLU (Time 18 s): -18.1852 RLU
RLU (Time 137.562 s): 194.213 RLU
RLU (Time 143.562 s): 209.767 RLU
RLU (Time 149.562 s): 181.475 RLU
RLU (Time 155.562 s): 183.974 RLU
RLU (Time 161.562 s): 173.161 RLU
RLU (Time 167.562 s): 179.231 RLU
RLU (Time 173.562 s): 187.201 RLU
RLU (Time 179.562 s): 174.25 RLU
RLU (Time 185.562 s): 178.039 RLU
RLU (Time 191.562 s): 190.798 RLU
RLU (Time 197.562 s): 173.368 RLU
RLU (Time 203.562 s): 190.575 RLU
RLU (Time 209.562 s): 197.772 RLU
RLU (Time 215.562 s): 163.432 RLU
RLU (Time 221.562 s): 153.254 RLU
RLU (Time 227.562 s): 164.71 RLU
RLU (Time 233.562 s): 163.97 RLU
RLU (Time 239.562 s): 147.809 RLU
RLU (Time 245.562 s): 173.351 RLU
RLU (Time 293.562 s): 149.968 RLU
RLU (Time 299.562 s): 165.311 RLU
RLU (Time 305.562 s): 159.539 RLU
RLU (Time 311.562 s): 142.659 RLU
RLU (Time 317.562 s): 150.371 RLU
RLU (Time 323.562 s): 171.186 RLU
RLU (Time 329.562 s): 175.087 RLU
RLU (Time 335.562 s): 172.597 RLU
RLU (Time 341.562 s): 183.065 RLU
RLU (Time 347.562 s): 201.017 RLU
RLU (Time 353.562 s): 156.745 RLU
RLU (Time 359.562 s): 154.549 RLU
Activation threshold concentration Tas2r108 (p < 0.01 vs empty vector): 100 µM
RLU (time 18.797 s): -15.9795 RLU
RLU (time 20.797 s): -38.1063 RLU
RLU (time 22.797 s): -53.0656 RLU
RLU (time 24.797 s): -41.093 RLU
RLU (time 26.797 s): 10.1284 RLU
RLU (time 28.797 s): -11.2259 RLU
RLU (time 30.797 s): 42.3249 RLU
RLU (time 32.797 s): 14.625 RLU
RLU (time 34.797 s): 31.6874 RLU
RLU (time 36.797 s): 61.9173 RLU
RLU (time 38.797 s): 95.7369 RLU
RLU (time 40.797 s): 96.8837 RLU
RLU (time 42.797 s): 120.977 RLU
RLU (time 44.797 s): 126.004 RLU
RLU (time 46.797 s): 150.942 RLU
RLU (time 48.797 s): 139.074 RLU
RLU (time 50.797 s): 165.429 RLU
RLU (time 52.797 s): 178.894 RLU
RLU (time 54.797 s): 165.569 RLU
RLU (time 56.797 s): 184.08 RLU
RLU (time 58.797 s): 203.839 RLU
RLU (time 60.797 s): 208.856 RLU
RLU (time 62.797 s): 198.008 RLU
RLU (time 64.797 s): 192.835 RLU
RLU (time 66.797 s): 228.59 RLU
RLU (time 68.797 s): 198.902 RLU
RLU (time 70.797 s): 190.075 RLU
RLU (time 72.797 s): 224.267 RLU
RLU (time 74.797 s): 237.802 RLU
RLU (time 76.797 s): 195.521 RLU
RLU (time 78.797 s): 205.632 RLU
RLU (time 80.797 s): 224.221 RLU
RLU (time 82.797 s): 233.724 RLU
RLU (time 84.797 s): 213.598 RLU
RLU (time 86.797 s): 226.297 RLU
RLU (time 88.797 s): 230.997 RLU
RLU (time 90.797 s): 224.416 RLU
RLU (time 92.797 s): 254.391 RLU
RLU (time 94.797 s): 247.364 RLU
RLU (time 96.797 s): 231.951 RLU
RLU (time 98.797 s): 231.597 RLU
RLU (time 100.797 s): 210.393 RLU
RLU (time 102.797 s): 230.574 RLU
RLU (time 104.797 s): 222.002 RLU
RLU (time 106.797 s): 222.39 RLU
RLU (time 108.797 s): 212.16 RLU
RLU (time 110.797 s): 216.252 RLU
RLU (time 112.797 s): 216.052 RLU
RLU (time 114.797 s): 221.895 RLU
RLU (time 116.797 s): 215.342 RLU
RLU (time 118.797 s): 209.462 RLU
RLU (time 120.797 s): 222.728 RLU
RLU (time 122.797 s): 206.205 RLU
RLU (time 124.797 s): 193.188 RLU
RLU (time 126.797 s): 207.494 RLU
RLU (time 128.797 s): 210.082 RLU
RLU (time 130.797 s): 216.943 RLU
RLU (time 132.797 s): 210.174 RLU
RLU (time 134.797 s): 194.975 RLU
RLU (time 136.797 s): 218.165 RLU
Compound: C[C@H](CCC(=O)NCC(=O)O)[C@H]1CC[C@H]2[C@@H]3[C@H](O)C[C@@H]4C[C@H](O)CC[C@]4(C)[C@H]3C[C@H](O)[C@]12C [Glycocholic Acid, glycocholic acid]
